Biological target: T1, human B1R (Homo sapiens, UniProt P46663)
T1 construct: expressed in transfected cells; host or cells: CHO K1 cells (Chinese Hamster Ovary), stably transfected
T1 sequence (P46663 1-353): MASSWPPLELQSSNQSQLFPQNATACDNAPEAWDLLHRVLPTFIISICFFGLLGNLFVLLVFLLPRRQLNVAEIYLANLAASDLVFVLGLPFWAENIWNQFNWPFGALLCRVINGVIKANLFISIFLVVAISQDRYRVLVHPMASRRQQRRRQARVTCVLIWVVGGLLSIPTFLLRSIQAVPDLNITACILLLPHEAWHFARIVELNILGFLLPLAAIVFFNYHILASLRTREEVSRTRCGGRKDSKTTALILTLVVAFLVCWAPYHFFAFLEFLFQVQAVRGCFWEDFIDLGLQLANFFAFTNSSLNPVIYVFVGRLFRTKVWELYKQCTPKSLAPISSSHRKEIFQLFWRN
Test: Functional assay at bradykinin receptor 1 (B1R): Ca2+ fluorescence (Fluo-4) in FLIPR/Novostar, antagonist mode
Format: cell-based
Conditions: test substance 10 µM; CHO K1 cells stably transfected with human B1R gene (hB1R-Zellen); agonist Lys-Des-Arg9-Bradykinin at EC80; % inhibition relative to maximal achievable inhibition
Procedure, shortened: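 CHO K1 cells stably expressing human B1R were loaded with Fluo-4 and preincubated 6–20 min with test compound before Lys-Des-Arg9-bradykinin at its EC80. Peak fluorescence (ex 488/em 540 nm) gave % inhibition versus maximal inhibition; IC50 from several concentrations, n=2 or 3.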

| Substance | % Inhibierung (human B1R) bei 10 µM [%] |
| --- | --- |
| N-[1-(4-Fluor-cyclohexyl)-3,3-dimethyl-piperidin-4-yl]-2-[3-[[(4-methoxy-2,6-dimethyl-phenyl)sulfonyl]-methyl]-[1,2,4]oxadiazol-5-yl]-acetamid [SC-48] | 100 |
| N-[4-(Cyclopropylamino)-2,2-dimethyl-cyclohexyl]-2-[3-[[(2,3-dichlor-phenyl)sulfonyl]-methyl]-[1,2,4]oxadiazol-5-yl]-acetamid [CC-123] | 99 |
